Measured values: US20180346446A1, “IRE1 SMALL MOLECULE INHIBITORS” (QUENTIS THERAPEUTICS, INC., priority 2017, published 2018)
pEC50, pIC50: −log10 of the molar value.

Key:
IRE1a [1] = target: T1, IRE1a (Homo sapiens, UniProt O75460); experiment: In vitro FRET assay (XBP1 RNA probe cleavage by IRE1a); type: biochemical; parameters: purchased SignalChem; conditions: 2 nM IRE1a protein
Method: In vitro FRET assay was performed to evaluate the ability of select compounds to inhibit IRE1, the results of which are summarized in Table 3. To perform the in vitro FRET assay, 1× complete assay buffer (CAB; […], 50 mM sodium citrate pH 7.15, ImM magnesium acetate, 0.02% tween 20) was used to dilute SignalChem IRE1a protein to a final concentration of 2 nM. Selected compounds were serially diluted with DMSO in a non-binding black 384-well plate for a total of 15 ul in each well. 2 ul of the serially diluted compound or DMSO control were then added to new wells containing 98 ul of 1×CAB, for a total volume of 100 ul, 10 ul of which were then transferred to wells of a new plate. 5 ul of the diluted IRE1a was then added to each well. 5 ul of a […] XBP1 RNA probe was then added to each well. Fluorescence was then read over 30 minutes in kinetic mode (485/515 nm).
Two RNA probes were used, XBP1 wildtype (SEQ ID NO: 2) which is able to be spliced by active IRE1a or XBP1 mutant (SEQ ID NO: 3) which is unable to be spliced. Each probe contained a 5′ 6-FAM modification and a 3′ IOWA Black FQ modification. […]

IRE1a [2] = target: T1, IRE1a; experiment: IRE1a Endoribonuclease Nanoluciferase Assay (XBP1 luciferase reporter in 293T cells); type: cell-based; conditions: 293T cells transfected with XBP1 luciferase reporter, ER stressors +/- inhibitors
Method: Compounds disclosed herein were assessed for disruption of IRE1 signaling using a IRE1a Endoribonuclease Nanoluciferase Assay. Briefly, 2.5×10^6 293T cells were seeded in a 10 cm^2 tissue culture plate. About 24 hours later, the cells were transfected with Effectene. In a 15 mL Tube, the following was added: 2 ug XBP1 luciferase reporter plasmid (PGK-Luc2-P2A-XBP1u-Nanoluciferase-PEST); 300 ul EC buffer; and 16 ul Enhancer, followed by incubation at room temp for 5 minutes. Next, 60 ul Effectene (Qiagen 301427) was added, followed by incubation at room temperature for 10 minutes. 2.6 mL cDMEM media was added. Old media was aspirated from the cells, followed by addition of 7 mL fresh media. Full transfection mixture was added dropwise to cells. Cells were incubated for 6 hours, followed by trypsinization, centrifugation and resuspension in 11 mL media. 100 uL of cells were plated per a well in a 96 well plate. A day later, ER stressors of choice +/− inhibitors were added. To harvest, media was aspirated from cells completely, then 50 uL 1× passive lysis buffer (Promega: E1941) was added per well and put on shaker (300 rpm) for 30 minutes at room temperature. Cells were centrifuged, and 15 uL sample per well was added to a new, opaque white 384 well plate (Corning 3570). 15 uL OneGlo (nanoluciferase kit, Promega N1630) was added. Plates were spun down, placed on shaker (300 rpm) for 10 minutes. Plates were read on luminometer, 1000 ms integration time per well. 15 uL Stop and Glo (nanoluciferase kit) was added. Plates were spun down, placed on shaker (300 rpm) for 10 minutes. Plates were read on luminometer, 1000 ms second integration time per well. Recordings are provided below in Table 4.

T1 sequence (O75460 19-977): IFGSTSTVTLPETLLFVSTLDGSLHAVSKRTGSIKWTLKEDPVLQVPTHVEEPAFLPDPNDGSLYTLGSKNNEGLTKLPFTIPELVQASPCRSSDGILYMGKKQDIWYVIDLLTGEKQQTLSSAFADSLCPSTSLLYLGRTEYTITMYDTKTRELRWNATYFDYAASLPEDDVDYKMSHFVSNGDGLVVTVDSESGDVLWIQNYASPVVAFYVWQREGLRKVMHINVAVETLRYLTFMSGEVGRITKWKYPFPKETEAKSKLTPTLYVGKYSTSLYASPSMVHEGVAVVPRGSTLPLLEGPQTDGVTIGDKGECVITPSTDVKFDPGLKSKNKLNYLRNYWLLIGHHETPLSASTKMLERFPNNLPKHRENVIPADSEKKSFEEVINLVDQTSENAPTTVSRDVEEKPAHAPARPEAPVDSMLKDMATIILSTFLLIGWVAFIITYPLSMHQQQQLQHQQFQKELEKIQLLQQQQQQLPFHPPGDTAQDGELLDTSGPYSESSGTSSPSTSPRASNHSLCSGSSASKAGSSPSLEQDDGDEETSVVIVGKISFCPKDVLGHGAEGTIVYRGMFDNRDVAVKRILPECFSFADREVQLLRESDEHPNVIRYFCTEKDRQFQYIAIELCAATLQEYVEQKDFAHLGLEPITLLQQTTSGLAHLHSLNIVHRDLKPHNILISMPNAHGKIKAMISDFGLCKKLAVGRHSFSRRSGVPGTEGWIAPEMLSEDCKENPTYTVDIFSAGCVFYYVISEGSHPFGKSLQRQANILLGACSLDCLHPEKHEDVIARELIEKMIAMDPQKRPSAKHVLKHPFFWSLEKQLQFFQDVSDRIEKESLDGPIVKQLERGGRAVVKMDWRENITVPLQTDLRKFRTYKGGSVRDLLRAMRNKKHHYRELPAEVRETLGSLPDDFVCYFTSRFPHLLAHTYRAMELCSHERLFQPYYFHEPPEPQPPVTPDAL

| SMILES | pIC50 (IRE1a [1]) | pEC50 (IRE1a [2]) |
| --- | --- | --- |
| Cc1nc(NS(=O)(=O)c2ccccc2Cl)ncc1-c1ccc2nc(N[C@H]3CC[C@H](N)CC3)ncc2c1 [68; Formic Acid] | ≥ 8.30 | 7.00 to 7.30 |
| CCc1cc(-c2ccc(NS(=O)(=O)c3ccccc3Cl)c(F)c2)cc2cnc(N[C@@H]3CC[C@H](N)[C@H](C)C3)nc12 [70; Formic Acid] | ≥ 8.30 | ≥ 8.30 |
| CCc1cc(-c2ccc(NS(=O)(=O)c3ccccc3Cl)c(F)c2)cc2cnc(N[C@@H]3CCC[C@H](N)C3)nc12 [72; Formic Acid] | ≥ 8.30 | < 7.00 |
| CCc1cc(-c2ccc(NS(=O)(=O)c3ccccc3Cl)c(F)c2)cc2cnc(N[C@H]3CCCNC3)nc12 [73; Formic Acid] | ≥ 8.30 | ≥ 8.30 |
| CCc1cc(-c2ccc(NS(=O)(=O)c3ccccc3Cl)c(F)c2)cc2cnc(N[C@@H]3CC[C@@H](N)[C@H](C)C3)nc12 [74; Formic Acid] | ≥ 8.30 | ≥ 8.30 |
| NC1CCCC(Nc2ncc3cc(-c4ccc(NS(=O)(=O)c5ccccc5Cl)c(F)c4)ccc3n2)C1 (stereo not drawn) [75; Formic Acid] | ≥ 8.30 | < 7.00 |
| O=S(=O)(Nc1ccc(-c2ccc3nc(N[C@H]4CCCNC4)ncc3c2)cc1F)c1ccccc1Cl [76; Formic Acid] | ≥ 8.30 | 7.30 to 8.30 |
| N[C@@H]1CC[C@@H](Nc2ncc3cc(-c4ccc(NS(=O)(=O)c5ccccc5Cl)c(F)c4)ccc3n2)C1 [77; Formic Acid] | ≥ 8.30 | 7.30 to 8.30 |
| CCc1cc(-c2ccc(NS(=O)(=O)c3ccccc3Cl)c(F)c2)cc2cnc(N[C@@H]3CC[C@@H](N)C3)nc12 [78; Formic Acid] | ≥ 8.30 | ≥ 8.30 |
| CCc1cc(-c2ccc(NS(=O)(=O)c3ccccc3Cl)c(F)c2)cc2cnc(N[C@@H]3CC[C@H](N)C3)nc12 [79; Formic Acid] | ≥ 8.30 | 7.30 to 8.30 |
| N[C@H]1CC[C@@H](Nc2ncc3cc(-c4ccc(NS(=O)(=O)c5ccccc5Cl)c(F)c4)ccc3n2)C1 [80; Formic Acid] | ≥ 8.30 | < 7.00 |
| NC12CCC(Nc3ncc4cc(-c5ccc(NS(=O)(=O)c6ccccc6Cl)c(F)c5)ccc4n3)(CC1)CC2 [81; Formic Acid] | ≥ 8.30 | ≥ 8.30 |
| CCc1cc(-c2ccc(NS(=O)(=O)c3ccccc3Cl)c(F)c2)cc2cnc(N[C@H]3CC4C[C@H](N)CC4C3)nc12 (stereo partly drawn) [82; Formic Acid] | ≥ 8.30 | 7.30 to 8.30 |
| CCc1cc(-c2ccc(NS(=O)(=O)c3ccccc3Cl)c(F)c2)cc2cnc(N[C@H]3CC4C[C@@H](N)CC4C3)nc12 (stereo partly drawn) [84; Formic Acid] | ≥ 8.30 | 7.30 to 8.30 |
| N[C@H]1CC2C[C@@H](Nc3ncc4cc(-c5ccc(NS(=O)(=O)c6ccccc6Cl)c(F)c5)ccc4n3)CC2C1 (stereo partly drawn) [85; Formic Acid] | ≥ 8.30 | < 7.00 |
| NC12CCC(Nc3ncc4cc(-c5ccc(NS(=O)(=O)c6ccccc6Cl)c(F)c5)ccc4n3)(CC1)C2 [86; Formic Acid] | ≥ 8.30 | 7.00 to 7.30 |
| CCc1cc(-c2ccc(NS(=O)(=O)c3ccccc3Cl)c(F)c2)cc2cnc(NC34CCC(N)(CC3)CC4)nc12 [87; Formic Acid] | ≥ 8.30 | ≥ 8.30 |
| CCc1cc(-c2ccc(NS(=O)(=O)c3ccccc3Cl)c(F)c2)cc2cnc(N[C@H]3CC[C@H](N4CCCC4)CC3)nc12 [88; Formic Acid] | ≥ 8.30 | ≥ 8.30 |
| N[C@H]1CC[C@H](Nc2ncc3cc(-c4nnc(NS(=O)(=O)c5ccccc5Cl)s4)ccc3n2)CC1 [89; Formic Acid] | ≥ 8.30 | < 7.00 |
| Cc1cc2nc(N[C@H]3CC[C@H](N)CC3)ncc2cc1-c1ccc(NS(=O)(=O)c2ccccc2Cl)c(F)c1 [90; Formic Acid] | ≥ 8.30 | 7.30 to 8.30 |
| CCc1cc(-c2cnc(NS(=O)(=O)c3ccccc3Cl)cc2OC)cc2cnc(N[C@H]3CC[C@H](N)CC3)nc12 [92; Formic Acid] | ≥ 8.30 | < 7.00 |

| SMILES | pIC50 (IRE1a [1]) | pEC50 (IRE1a [2]) |
| --- | --- | --- |
| CCc1cc(-c2ncc(NS(=O)(=O)c3ccccc3Cl)cc2OC)cc2cnc(N[C@H]3CC[C@H](N)CC3)nc12 [93; Formic Acid] | ≥ 8.30 | ≥ 8.30 |
| CCc1cc(-c2ncc(NS(=O)(=O)c3ccccc3Cl)nc2C)cc2cnc(N[C@H]3CC[C@H](N)CC3)nc12 [94; Formic Acid] | ≥ 8.30 | ≥ 8.30 |
| CCc1cc(-c2ncc(NS(=O)(=O)c3ccccc3Cl)nc2OC)cc2cnc(N[C@H]3CC[C@H](N)CC3)nc12 [98; Formic Acid] | ≥ 8.30 | ≥ 8.30 |
| CCc1cc(-c2cc(CC)c3nc(N[C@H]4CC[C@H](N)CC4)ncc3c2)nnc1NS(=O)(=O)c1ccccc1Cl [100; Formic Acid] | ≥ 8.30 | 7.00 to 7.30 |
| COc1nc(NS(=O)(=O)c2ccccc2C#N)ccc1-c1cc2cnc(N[C@H]3CC[C@H](N)CC3)nc2cc1C [102; Formic Acid] | ≥ 8.30 | 7.00 to 7.30 |
| CCc1cc(-c2ccc(NS(=O)(=O)c3ccccc3C)nc2OC)cc2cnc(N[C@H]3CC[C@H](N)CC3)nc12 [103; Formic Acid] | ≥ 8.30 | ≥ 8.30 |
| COc1nc(NS(=O)(=O)c2ccccc2Cl)ccc1-c1cc2cnc(N[C@H]3CC[C@H](N)CC3)nc2cc1C [104; Formic Acid] | ≥ 8.30 | 7.00 to 7.30 |
| CCc1cc(-c2ccc(NS(=O)(=O)c3ccccc3Cl)nc2OC(F)(F)F)cc2cnc(N[C@H]3CC[C@H](N)CC3)nc12 [107; Formic Acid] | ≥ 8.30 | ≥ 8.30 |
| CCc1cc(-c2ccc(NS(=O)(=O)c3ccccc3OC)nc2OC)cc2cnc(N[C@H]3CC[C@H](N)CC3)nc12 [109; Formic Acid] | ≥ 8.30 | ≥ 8.30 |
| CCc1cc2nc(N[C@H]3CC[C@H](N)CC3)ncc2cc1-c1ccc(NS(=O)(=O)c2ccccc2Cl)nc1OC [110; Formic Acid] | ≥ 8.30 | ≥ 8.30 |
| CCc1cc(-c2ccc(NS(=O)(=O)c3ccccc3)nc2C)cc2cnc(N[C@H]3CC[C@H](N)CC3)nc12 [111; Formic Acid] | ≥ 8.30 | 7.00 to 7.30 |
| CCc1cc(-c2ccc(NS(=O)(=O)c3ccccc3C)nc2C)cc2cnc(N[C@H]3CC[C@H](N)CC3)nc12 [112; Formic Acid] | ≥ 8.30 | 7.30 to 8.30 |
| CCc1cc(-c2ccc(NS(=O)(=O)c3cccc(C)c3)nc2C)cc2cnc(N[C@H]3CC[C@H](N)CC3)nc12 [113; Formic Acid] | ≥ 8.30 | 7.30 to 8.30 |
| COc1nc(NS(=O)(=O)c2ccccc2Cl)ccc1-c1cc(C)c2nc(N[C@H]3CC[C@H](N)CC3)ncc2c1 [115; Formic Acid] | ≥ 8.30 | ≥ 8.30 |
| CCc1cc(-c2cc(F)c(NS(=O)(=O)c3ccccc3Cl)cc2OC)cc2cnc(N[C@H]3CC[C@H](N(C)C)CC3)nc12 [120; Formic Acid] | ≥ 8.30 | ≥ 8.30 |
| CCc1cc(-c2cc(F)c(NS(=O)(=O)c3ccccc3Cl)cc2OC)cc2cnc(N[C@H]3CC[C@H](NC)CC3)nc12 [121; Formic Acid] | ≥ 8.30 | ≥ 8.30 |
| COc1nc(NS(=O)(=O)c2ccccc2Cl)ccc1-c1cc(C(C)(F)F)c2nc(N[C@H]3CC[C@H](N)CC3)ncc2c1 [123; Formic Acid] | ≥ 8.30 | ≥ 8.30 |
| COCc1cc(-c2ccc(NS(=O)(=O)c3ccccc3Cl)nc2OC)cc2cnc(N[C@H]3CC[C@H](N)CC3)nc12 [129; Formic Acid] | ≥ 8.30 | ≥ 8.30 |
| COc1nc(NS(=O)(=O)c2ccccc2Cl)ccc1-c1cc(C(F)(F)F)c2nc(N[C@H]3CC[C@H](N)CC3)ncc2c1 [134; Formic Acid] | ≥ 8.30 | ≥ 8.30 |
| CCc1nc(NS(=O)(=O)c2ccccc2Cl)ccc1-c1cc(CC)c2nc(NC34CCC(N(C)C)(CC3)CC4)ncc2c1 [136; Formic Acid] | ≥ 8.30 | ≥ 8.30 |
| COc1nc(NS(=O)(=O)c2ccccc2Cl)ccc1-c1cc(C)c2nc(N[C@H]3CC[C@@H](N)CC3)ncc2c1 [138; Formic Acid] | ≥ 8.30 | 7.00 to 7.30 |
